Results from PubChem BioAssay AID1963838 (Molecular Pharmacology Branch, DTP, NCI, 2024).

Tested on: 855422-203-R-J1-PDC complex spheroid viability
Assay: Anticancer human tumor 855422-203-R-J1-PDC patient-derived bladder carcinoma cell line growth inhibition [POLQ]
Conditions: for IC50: curve of first compound; for viability, T/C: stronger effect = lower value
Protocol: Multicellular complex tumor spheroid response to Polymerase (POL) inhibitors (novobiocin, ART-558, RP6685) in combination with a variety of drugs and investigational agents in selected tumor cell lines
The POL inhibitors (novobiocin, ART-558, and RP6685) were evaluated both individually and in combination with standard of care and investigational anticancer small molecules within a complex spheroid model of solid tumors. . Complex spheroids include a stromal component modeled by human endothelial cells (HUVEC) and fibroblasts modeled by human mesenchymal stem cells (MSCs). The concentration ranges selected for each drug and investigational agent were based upon clinically achievable concentrations if the clinical Cmax of the agent was known.
Compounds. The drugs and investigational agents: novobiocin (NSC847541), ART-558 (NSC835418), RP-6685 (NSC848927), peposertib (NSC802822), ceralasertib (NSC780249), elimusertib (NSC800525), camonsertib (NSC841442), AZD-1390 (NSC803789), olaparib (NSC753686), talazoparib (NSC767125), rucaparib (NSC756644), sotorasib (NSC818433), MRTX-1133 (NSC836407), SN-38 (NSC673596), topotecan (NSC609699), epotoside (NSC141540), doxorubicin (NSC123127), gemcitabine (NSC613327), 5-fluorouracil (NSC19893), paclitaxel (NSC125973), vemurafenib (NSC761431), MSA-2 (NSC828583), SN-011 (NSC837082), adavosertib (NSC754352), prexasertib (NSC758257), carboplatin (NSC241240) and oxaliplatin (NSC266046), were obtained from the National Cancer Institute (NCI) Developmental Therapeutics Program Chemical Repository (21). The FDA-approved anticancer drug set is available from the Developmental Therapeutics Program at https://dtp.cancer.gov/organization/dscb/obtaining/. […] The stock solutions were prepared in dimethyl sulfoxide (DMSO, Sigma-Aldrich, St. Louis, MO, cat. D2650), except for the platinum compounds which were prepared in saline (Quality Biological, Gaithersburg, MD, cat. 114-055-101), at 800-fold the tested concentration and stored at -70 degrees C prior to their use. All drugs and investigational agents were tested over a range starting from a high concentration at or near the clinical Cmax and decreasing in half-log increments. If the clinical Cmax for an agent had not been determined, the highest concentration tested was 10 microM, except for SN-38, which was tested at a high concentration of 1 microM.
Cell Culture. All cells were maintained in an incubator at 37 degrees C and 5% CO2 with 95% humidity. The PDC lines were cultured according to standard operating procedures established by the NCI PDMR (https://pdmr.cancer.gov). Table 3 of the manuscript, lists the cell lines along with the number of the three cell types plated to form the mct-spheroids and media for tumor cell growth. After thawing, all PDC lines, except 997537-175-T-J1-PDC and 415267-285-R-J2-PDC, were cultured in Matrigel-coated flasks prepared with a working solution of 1X Ham's F-12 nutrient mix, without supplementation (Thermo Fisher Scientific, cat. 11765054), 100 U/mL penicillin-streptomycin (Thermo Fisher Scientific, cat. 15140122), and 2.5% Matrigel (Corning Inc., Corning, NY, cat. 354248) for the first three passages. The two PDC lines 997537-175-T-J1-PDC and 415267-285-R-J2-PDC were cultured on uncoated flasks. The 857933-349-R-J2-PDC line was cultured in 6C/Colon 1B media containing advanced DMEM/F-12 (Thermo Fisher Scientific, cat. 12634028), 10 mM HEPES (Thermo Fisher Scientific, cat. 15630080), 1X GlutaMAX supplement (Thermo Fisher Scientific, cat. 35050061), 0.1 mg/mL primocin (InvivoGen, San Diego, CA, cat. ant-pm-2), 10% defined fetal bovine serum, heat inactivated (HyClone Laboratories Inc., Logan, UT, cat. SH30070.03HI), 50% L-WRN conditioned media (ATCC, cat. CRL-3276), 1.25 mM N-Acetyl-L-cysteine (Sigma-Aldrich, cat. A9165), 10 mM nicotinamide (Sigma-Aldrich, cat. N0636), 1X B-27 supplement (Thermo Fisher Scientific, cat. 17504044), 1X N-2 supplement (Thermo Fisher Scientific, cat. […]

[1] = second compound 0.0316 µM, first compound 0.000316 µM
[2] = second compound 0.0316 µM, first compound 0.001 µM
[3] = second compound 0.0316 µM, first compound 0.00316 µM
[4] = second compound 0.0316 µM, first compound 0.01 µM
[5] = second compound 0.0316 µM, first compound 0.0316 µM
[6] = second compound 0.0316 µM, first compound 0.1 µM
[7] = second compound 0.1 µM, first compound 0.000316 µM
[8] = second compound 0.1 µM, first compound 0.001 µM
[9] = second compound 0.1 µM, first compound 0.00316 µM
[10] = second compound 0.1 µM, first compound 0.01 µM
[11] = second compound 0.1 µM, first compound 0.0316 µM
[12] = second compound 0.1 µM, first compound 0.1 µM
[13] = second compound 0.316 µM, first compound 0.000316 µM
[14] = second compound 0.316 µM, first compound 0.001 µM
[15] = second compound 0.316 µM, first compound 0.00316 µM
[16] = second compound 0.316 µM, first compound 0.01 µM
[17] = second compound 0.316 µM, first compound 0.0316 µM
[18] = second compound 0.316 µM, first compound 0.1 µM
[19] = second compound 1 µM, first compound 0.000316 µM
[20] = second compound 1 µM, first compound 0.001 µM
[21] = second compound 1 µM, first compound 0.00316 µM
[22] = second compound 1 µM, first compound 0.01 µM
[23] = second compound 1 µM, first compound 0.0316 µM
[24] = second compound 1 µM, first compound 0.1 µM
[25] = second compound 3.16 µM, first compound 0.000316 µM
[26] = second compound 3.16 µM, first compound 0.001 µM
[27] = second compound 3.16 µM, first compound 0.00316 µM
[28] = second compound 3.16 µM, first compound 0.01 µM
[29] = second compound 3.16 µM, first compound 0.0316 µM
[30] = second compound 3.16 µM, first compound 0.1 µM
[31] = second compound 10 µM, first compound 0.000316 µM
[32] = second compound 10 µM, first compound 0.001 µM
[33] = second compound 10 µM, first compound 0.00316 µM
[34] = second compound 10 µM, first compound 0.01 µM
[35] = second compound 10 µM, first compound 0.0316 µM
[36] = second compound 10 µM, first compound 0.1 µM
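Note: spheroids exposed to compounds for seven days before readout.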

Molecule CC[C@@]1(O)C(=O)OCc2c1cc1n(c2=O)Cc2cc3c(CN(C)C)c(O)ccc3nc2-1 + COC1C(OC(N)=O)C(O)C(Oc2ccc3c(O)c(NC(=O)c4ccc(O)c(CC=C(C)C)c4)c(=O)oc3c2C)OC1(C)C has an IC50 (second compound 0.0316 µM) of 35.2 nM, an IC50 (second compound 0.1 µM) of 30.3 nM and an IC50 (second compound 0.316 µM) of 30.2 nM. It also gave an IC50 (second compound 1 µM) of 27.7 nM, an IC50 (second compound 3.16 µM) of 23.3 nM and an IC50 (second compound 10 µM) of 22.5 nM. The viability, T/C [1] was 125%, the viability, T/C [2] was 123% and the viability, T/C [3] was 116%. It also gave a viability, T/C [4] of 126%, a viability, T/C [5] of 53.5% and a viability, T/C [6] of 14.7%. It also gave a viability, T/C [7] of 108%, a viability, T/C [8] of 111% and a viability, T/C [9] of 104%. The viability, T/C [10] was 113%, the viability, T/C [11] was 47.8% and the viability, T/C [12] was 11.8%. It also gave a viability, T/C [13] of 116%, a viability, T/C [14] of 110% and a viability, T/C [15] of 122%. The viability, T/C [16] was 101%, the viability, T/C [17] was 48.2% and the viability, T/C [18] was 11.7%. The viability, T/C [19] was 116%, the viability, T/C [20] was 124% and the viability, T/C [21] was 112%. The viability, T/C [22] was 91.7%, the viability, T/C [23] was 44.7% and the viability, T/C [24] was 10.6%. The viability, T/C [25] was 112%, the viability, T/C [26] was 108% and the viability, T/C [27] was 109%. The viability, T/C [28] was 112%, the viability, T/C [29] was 28.4% and the viability, T/C [30] was 11.7%. It also gave a viability, T/C [31] of 117%, a viability, T/C [32] of 107% and a viability, T/C [33] of 117%. For the same molecule, the viability, T/C [34] was 98.9%, the viability, T/C [35] was 29.6% and the viability, T/C [36] was 16.2%.

Molecule Cn1ncnc1[C@H]1c2n[nH]c(=O)c3cc(F)cc(c23)N[C@@H]1c1ccc(F)cc1 + COC1C(OC(N)=O)C(O)C(Oc2ccc3c(O)c(NC(=O)c4ccc(O)c(CC=C(C)C)c4)c(=O)oc3c2C)OC1(C)C has an IC50 (second compound 0.0316 µM) greater than 100 nM, an IC50 (second compound 0.1 µM) greater than 100 nM and an IC50 (second compound 0.316 µM) greater than 100 nM. For the same molecule, the IC50 (second compound 1 µM) was greater than 100 nM, the IC50 (second compound 3.16 µM) was greater than 100 nM and the IC50 (second compound 10 µM) was greater than 100 nM. The viability, T/C [1] was 94.6%, the viability, T/C [2] was 104% and the viability, T/C [3] was 116%. It also gave a viability, T/C [4] of 106%, a viability, T/C [5] of 108% and a viability, T/C [6] of 108%. For the same molecule, the viability, T/C [7] was 81.8%, the viability, T/C [8] was 93.8% and the viability, T/C [9] was 113%. For the same molecule, the viability, T/C [10] was 95.3%, the viability, T/C [11] was 99.7% and the viability, T/C [12] was 96.6%. The viability, T/C [13] was 106%, the viability, T/C [14] was 106% and the viability, T/C [15] was 101%. It also gave a viability, T/C [16] of 108%, a viability, T/C [17] of 95.4% and a viability, T/C [18] of 118%. For the same molecule, the viability, T/C [19] was 110%, the viability, T/C [20] was 99.7% and the viability, T/C [21] was 106%. The viability, T/C [22] was 107%, the viability, T/C [23] was 103% and the viability, T/C [24] was 95.9%. For the same molecule, the viability, T/C [25] was 105%, the viability, T/C [26] was 106% and the viability, T/C [27] was 98.2%. The viability, T/C [28] was 94.4%, the viability, T/C [29] was 95.9% and the viability, T/C [30] was 102%. The viability, T/C [31] was 108%, the viability, T/C [32] was 97.2% and the viability, T/C [33] was 101%. For the same molecule, the viability, T/C [34] was 109%, the viability, T/C [35] was 100% and the viability, T/C [36] was 84%.
